From ChEMBL document CHEMBL5696441 (Nat Chem Biol, 2011) come the findings set out here.

Assay [1] concerns the target High affinity nerve growth factor receptor (Homo sapiens) (UniProt P04629). Briefly: Inhibition of TRKA (unknown origin) assessed as remaining activity at 1 uM by Kinome scan method relative to control.
The target of assay [2] is RAC-beta serine/threonine-protein kinase (Homo sapiens) (UniProt P31751). Put plainly: Inhibition of human AKT2 assessed as residual activity at 1 uM using RBER-GSK3(14-27) as substrate in presence of 33P-ATP by ProQinase assay relative to control.
Assay [3] addresses Activated CDC42 kinase 1 (Homo sapiens) (UniProt Q07912). Briefly: Inhibition of TNK2 (unknown origin) assessed as remaining activity at 1 uM by Kinome scan method relative to control.
The target of assay [4] is Glycogen synthase kinase-3 beta (Homo sapiens) (UniProt P49841). Put plainly: Inhibition of GSK3beta (unknown origin) assessed as remaining activity at 1 uM by Kinome scan method relative to control.
Chain of Glycogen synthase kinase-3 beta (Homo sapiens) (P49841 whole entry, looked up): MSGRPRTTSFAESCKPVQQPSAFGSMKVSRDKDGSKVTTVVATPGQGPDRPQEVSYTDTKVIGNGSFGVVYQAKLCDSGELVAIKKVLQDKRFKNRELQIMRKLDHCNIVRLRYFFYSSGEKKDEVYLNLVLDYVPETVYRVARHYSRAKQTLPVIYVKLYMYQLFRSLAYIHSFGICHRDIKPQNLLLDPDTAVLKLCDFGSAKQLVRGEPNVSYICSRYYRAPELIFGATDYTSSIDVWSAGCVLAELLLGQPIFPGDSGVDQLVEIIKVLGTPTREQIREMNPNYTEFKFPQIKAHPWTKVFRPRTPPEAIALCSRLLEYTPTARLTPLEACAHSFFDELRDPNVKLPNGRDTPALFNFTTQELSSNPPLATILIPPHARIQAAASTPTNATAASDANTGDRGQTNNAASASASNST
Assay [5] deals with Activated CDC42 kinase 1 (Homo sapiens) (UniProt Q07912). Put plainly: Inhibition of human ACK1 assessed as residual activity at 1 uM using PolyEY as substrate in presence of 33P-ATP by ProQinase assay relative to control.
Chain of Activated CDC42 kinase 1 (Homo sapiens) (Q07912 whole entry, looked up): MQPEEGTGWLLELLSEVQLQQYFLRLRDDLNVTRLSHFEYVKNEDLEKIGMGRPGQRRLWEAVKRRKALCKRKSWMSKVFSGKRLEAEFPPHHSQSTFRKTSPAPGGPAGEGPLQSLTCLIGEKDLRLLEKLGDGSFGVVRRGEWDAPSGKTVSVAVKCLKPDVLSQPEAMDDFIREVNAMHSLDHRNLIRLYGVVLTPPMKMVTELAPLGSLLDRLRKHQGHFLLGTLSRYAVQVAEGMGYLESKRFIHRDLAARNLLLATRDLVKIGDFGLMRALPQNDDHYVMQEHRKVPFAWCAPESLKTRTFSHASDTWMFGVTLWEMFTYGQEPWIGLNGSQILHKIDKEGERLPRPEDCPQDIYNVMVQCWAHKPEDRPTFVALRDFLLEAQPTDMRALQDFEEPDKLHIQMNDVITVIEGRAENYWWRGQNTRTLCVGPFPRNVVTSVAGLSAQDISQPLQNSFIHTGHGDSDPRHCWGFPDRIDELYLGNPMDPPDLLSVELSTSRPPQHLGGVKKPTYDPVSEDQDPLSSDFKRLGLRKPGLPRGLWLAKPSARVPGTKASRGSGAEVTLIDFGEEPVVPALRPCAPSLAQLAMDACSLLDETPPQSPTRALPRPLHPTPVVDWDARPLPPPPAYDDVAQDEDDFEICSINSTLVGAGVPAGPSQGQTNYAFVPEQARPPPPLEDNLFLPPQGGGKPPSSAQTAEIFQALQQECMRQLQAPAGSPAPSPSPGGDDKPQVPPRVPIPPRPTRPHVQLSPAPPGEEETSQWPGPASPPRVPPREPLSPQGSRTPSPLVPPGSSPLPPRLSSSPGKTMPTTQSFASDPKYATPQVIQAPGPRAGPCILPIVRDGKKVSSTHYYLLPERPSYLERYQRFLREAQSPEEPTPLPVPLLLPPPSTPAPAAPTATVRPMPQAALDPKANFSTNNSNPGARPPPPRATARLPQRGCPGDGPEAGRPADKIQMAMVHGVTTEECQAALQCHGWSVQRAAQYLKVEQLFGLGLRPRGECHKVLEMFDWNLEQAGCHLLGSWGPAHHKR
In assay [6] the target is Rho-associated protein kinase 2 (Homo sapiens) (UniProt O75116). Briefly: Inhibition of ROCK2 (unknown origin) assessed as remaining activity at 1 uM by Kinome scan method relative to control.
For assay [7], the target named is Serine/threonine-protein kinase PLK1 (Homo sapiens) (UniProt P53350). Briefly: Inhibition of human PLK1 assessed as residual activity at 1 uM using RBER-CHKtide as substrate in presence of 33P-ATP by ProQinase assay relative to control.
Chain of Serine/threonine-protein kinase PLK1 (Homo sapiens) (P53350 whole entry): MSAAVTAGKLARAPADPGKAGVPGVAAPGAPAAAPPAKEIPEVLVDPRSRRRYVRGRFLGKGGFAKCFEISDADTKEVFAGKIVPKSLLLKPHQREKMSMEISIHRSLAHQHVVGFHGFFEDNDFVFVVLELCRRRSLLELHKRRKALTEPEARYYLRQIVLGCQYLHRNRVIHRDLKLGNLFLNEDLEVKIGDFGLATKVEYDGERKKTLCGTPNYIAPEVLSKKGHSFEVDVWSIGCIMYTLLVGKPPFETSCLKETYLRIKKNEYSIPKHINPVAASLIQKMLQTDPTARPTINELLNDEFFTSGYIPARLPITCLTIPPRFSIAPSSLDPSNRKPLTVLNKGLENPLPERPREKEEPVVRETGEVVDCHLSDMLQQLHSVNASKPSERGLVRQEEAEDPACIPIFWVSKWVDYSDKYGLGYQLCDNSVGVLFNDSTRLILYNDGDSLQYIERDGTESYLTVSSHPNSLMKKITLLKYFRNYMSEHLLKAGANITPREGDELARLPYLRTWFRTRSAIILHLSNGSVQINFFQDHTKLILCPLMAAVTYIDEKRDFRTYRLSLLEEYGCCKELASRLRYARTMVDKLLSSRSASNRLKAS
The target of assay [8] is T1, Myosin light chain kinase (Homo sapiens) (UniProt Q32MK0).
T1 sequence (whole entry): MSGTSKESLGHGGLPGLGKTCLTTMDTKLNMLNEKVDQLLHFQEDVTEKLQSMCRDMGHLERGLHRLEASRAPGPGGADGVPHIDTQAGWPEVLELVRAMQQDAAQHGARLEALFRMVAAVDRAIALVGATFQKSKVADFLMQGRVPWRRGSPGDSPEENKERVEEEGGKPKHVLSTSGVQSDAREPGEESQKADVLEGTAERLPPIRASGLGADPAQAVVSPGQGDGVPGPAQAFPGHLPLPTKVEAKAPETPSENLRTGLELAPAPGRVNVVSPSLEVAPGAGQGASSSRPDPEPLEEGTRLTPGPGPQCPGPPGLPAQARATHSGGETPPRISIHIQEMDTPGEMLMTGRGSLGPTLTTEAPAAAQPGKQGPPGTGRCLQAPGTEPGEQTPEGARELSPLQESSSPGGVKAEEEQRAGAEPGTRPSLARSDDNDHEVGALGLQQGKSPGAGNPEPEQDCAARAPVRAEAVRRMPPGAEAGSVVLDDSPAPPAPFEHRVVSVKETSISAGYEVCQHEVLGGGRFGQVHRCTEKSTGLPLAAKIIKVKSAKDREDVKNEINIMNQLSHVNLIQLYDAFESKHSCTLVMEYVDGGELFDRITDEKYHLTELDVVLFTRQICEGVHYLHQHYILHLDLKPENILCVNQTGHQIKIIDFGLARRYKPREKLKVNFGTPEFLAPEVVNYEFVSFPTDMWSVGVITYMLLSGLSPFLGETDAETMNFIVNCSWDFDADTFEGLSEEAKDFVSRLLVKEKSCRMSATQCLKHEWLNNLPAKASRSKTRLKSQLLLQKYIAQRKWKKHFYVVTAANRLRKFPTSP
Put plainly: Inhibition of human MYLK3 assessed as residual activity at 1 uM using RB-S6P as substrate in presence of 33P-ATP by ProQinase assay relative to control.

Assay [9] addresses Mitogen-activated protein kinase 10 (Homo sapiens) (UniProt P53779). Briefly: Inhibition of JNK3 (unknown origin) assessed as remaining activity at 1 uM by Kinome scan method relative to control.
The target in assay [10] is T2, Serine/threonine-protein kinase D3 (Homo sapiens) (UniProt O94806).
T2 sequence (whole entry): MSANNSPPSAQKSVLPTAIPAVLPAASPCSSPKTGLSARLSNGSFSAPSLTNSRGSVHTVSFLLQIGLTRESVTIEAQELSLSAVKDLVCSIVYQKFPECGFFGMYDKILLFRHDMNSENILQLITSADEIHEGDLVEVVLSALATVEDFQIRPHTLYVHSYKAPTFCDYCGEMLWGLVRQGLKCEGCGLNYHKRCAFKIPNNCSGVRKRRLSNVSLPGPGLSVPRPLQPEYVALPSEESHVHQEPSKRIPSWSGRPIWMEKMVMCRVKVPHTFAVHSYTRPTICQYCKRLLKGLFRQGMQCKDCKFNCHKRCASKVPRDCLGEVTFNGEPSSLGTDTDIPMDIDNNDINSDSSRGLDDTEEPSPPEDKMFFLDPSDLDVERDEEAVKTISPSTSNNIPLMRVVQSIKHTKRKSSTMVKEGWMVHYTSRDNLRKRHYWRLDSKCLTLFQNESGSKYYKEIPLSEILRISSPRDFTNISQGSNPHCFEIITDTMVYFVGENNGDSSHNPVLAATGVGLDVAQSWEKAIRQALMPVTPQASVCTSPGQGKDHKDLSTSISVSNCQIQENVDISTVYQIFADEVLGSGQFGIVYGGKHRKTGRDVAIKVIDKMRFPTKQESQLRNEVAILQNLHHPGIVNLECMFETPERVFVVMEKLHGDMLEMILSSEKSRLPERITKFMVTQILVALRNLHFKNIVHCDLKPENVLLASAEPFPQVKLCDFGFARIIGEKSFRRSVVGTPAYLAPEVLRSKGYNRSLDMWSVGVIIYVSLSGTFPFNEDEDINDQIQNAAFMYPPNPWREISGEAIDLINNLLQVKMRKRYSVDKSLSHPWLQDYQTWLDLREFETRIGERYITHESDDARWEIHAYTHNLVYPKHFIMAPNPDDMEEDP
Briefly: Inhibition of human PKCnu assessed as residual activity at 1 uM using bio-4xCHKT as substrate in presence of 33P-ATP by ProQinase assay relative to control.

In assay [11] the test system is Epidermal growth factor receptor (Homo sapiens), P00533 [UNDEFINED MUTATION]. Put plainly: Inhibition of human EGFR d747-749/A750P mutant assessed as residual activity at 1 uM using PolyEY as substrate in presence of 33P-ATP by ProQinase assay relative to control.
Chain of Epidermal growth factor receptor (Homo sapiens), P00533 [UNDEFINED MUTATION] (P00533 whole entry, looked up, stated change not applied): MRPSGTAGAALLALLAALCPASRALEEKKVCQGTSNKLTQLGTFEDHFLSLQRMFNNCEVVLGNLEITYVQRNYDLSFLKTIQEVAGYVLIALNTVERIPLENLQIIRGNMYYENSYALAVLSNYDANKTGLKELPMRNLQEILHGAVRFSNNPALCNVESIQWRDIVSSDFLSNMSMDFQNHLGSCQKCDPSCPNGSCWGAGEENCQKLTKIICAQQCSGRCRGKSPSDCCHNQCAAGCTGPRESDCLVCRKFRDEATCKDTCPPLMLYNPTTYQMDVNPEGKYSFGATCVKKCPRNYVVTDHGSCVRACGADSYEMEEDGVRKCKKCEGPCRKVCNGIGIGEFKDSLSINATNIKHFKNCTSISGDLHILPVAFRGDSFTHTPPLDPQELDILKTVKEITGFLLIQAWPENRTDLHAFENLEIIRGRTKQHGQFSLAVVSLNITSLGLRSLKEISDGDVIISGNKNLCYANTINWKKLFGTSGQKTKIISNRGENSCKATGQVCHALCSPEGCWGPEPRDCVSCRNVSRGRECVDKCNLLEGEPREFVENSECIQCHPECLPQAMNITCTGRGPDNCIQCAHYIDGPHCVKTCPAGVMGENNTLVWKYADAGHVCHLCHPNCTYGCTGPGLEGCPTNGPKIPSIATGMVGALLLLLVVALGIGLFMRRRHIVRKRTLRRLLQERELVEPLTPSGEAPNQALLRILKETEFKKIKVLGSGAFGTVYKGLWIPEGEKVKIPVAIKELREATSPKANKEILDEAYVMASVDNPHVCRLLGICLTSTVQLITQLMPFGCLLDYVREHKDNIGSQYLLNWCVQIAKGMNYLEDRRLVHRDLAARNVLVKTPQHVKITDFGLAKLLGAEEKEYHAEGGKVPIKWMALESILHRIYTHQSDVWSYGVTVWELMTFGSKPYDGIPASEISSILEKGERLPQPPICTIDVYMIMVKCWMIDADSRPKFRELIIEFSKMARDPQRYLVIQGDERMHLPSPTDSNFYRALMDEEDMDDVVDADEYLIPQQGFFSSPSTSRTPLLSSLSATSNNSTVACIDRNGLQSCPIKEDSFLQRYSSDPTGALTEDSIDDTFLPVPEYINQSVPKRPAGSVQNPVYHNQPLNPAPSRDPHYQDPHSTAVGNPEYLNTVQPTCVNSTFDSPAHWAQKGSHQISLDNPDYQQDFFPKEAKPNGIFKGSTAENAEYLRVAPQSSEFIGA
For assay [12], the target named is Insulin-like growth factor 1 receptor (Homo sapiens) (UniProt P08069). Put plainly: Inhibition of IGF1R (unknown origin) assessed as remaining activity at 1 uM by Kinome scan method relative to control.
Chain of Insulin-like growth factor 1 receptor (Homo sapiens) (P08069 31-736 limits assumed): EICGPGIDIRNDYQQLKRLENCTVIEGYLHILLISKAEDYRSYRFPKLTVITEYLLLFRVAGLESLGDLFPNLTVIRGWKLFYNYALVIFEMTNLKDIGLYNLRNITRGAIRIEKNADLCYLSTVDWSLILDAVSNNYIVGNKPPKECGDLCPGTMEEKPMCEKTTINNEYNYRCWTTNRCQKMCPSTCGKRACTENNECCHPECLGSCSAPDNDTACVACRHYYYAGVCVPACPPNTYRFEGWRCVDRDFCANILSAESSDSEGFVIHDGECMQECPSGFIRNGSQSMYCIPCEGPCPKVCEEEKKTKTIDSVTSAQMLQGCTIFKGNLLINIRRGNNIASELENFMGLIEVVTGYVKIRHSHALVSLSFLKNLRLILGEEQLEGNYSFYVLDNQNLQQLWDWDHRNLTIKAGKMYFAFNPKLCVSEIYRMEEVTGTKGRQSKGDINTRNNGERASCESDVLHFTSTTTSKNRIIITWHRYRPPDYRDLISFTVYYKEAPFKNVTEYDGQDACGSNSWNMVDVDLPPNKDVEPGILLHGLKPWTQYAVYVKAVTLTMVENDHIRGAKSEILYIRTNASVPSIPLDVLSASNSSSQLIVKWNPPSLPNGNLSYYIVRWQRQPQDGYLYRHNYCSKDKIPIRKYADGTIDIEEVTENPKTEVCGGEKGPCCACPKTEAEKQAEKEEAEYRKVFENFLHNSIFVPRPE
Chain of Insulin-like growth factor 1 receptor (Homo sapiens) (P08069 741-1367 limits assumed): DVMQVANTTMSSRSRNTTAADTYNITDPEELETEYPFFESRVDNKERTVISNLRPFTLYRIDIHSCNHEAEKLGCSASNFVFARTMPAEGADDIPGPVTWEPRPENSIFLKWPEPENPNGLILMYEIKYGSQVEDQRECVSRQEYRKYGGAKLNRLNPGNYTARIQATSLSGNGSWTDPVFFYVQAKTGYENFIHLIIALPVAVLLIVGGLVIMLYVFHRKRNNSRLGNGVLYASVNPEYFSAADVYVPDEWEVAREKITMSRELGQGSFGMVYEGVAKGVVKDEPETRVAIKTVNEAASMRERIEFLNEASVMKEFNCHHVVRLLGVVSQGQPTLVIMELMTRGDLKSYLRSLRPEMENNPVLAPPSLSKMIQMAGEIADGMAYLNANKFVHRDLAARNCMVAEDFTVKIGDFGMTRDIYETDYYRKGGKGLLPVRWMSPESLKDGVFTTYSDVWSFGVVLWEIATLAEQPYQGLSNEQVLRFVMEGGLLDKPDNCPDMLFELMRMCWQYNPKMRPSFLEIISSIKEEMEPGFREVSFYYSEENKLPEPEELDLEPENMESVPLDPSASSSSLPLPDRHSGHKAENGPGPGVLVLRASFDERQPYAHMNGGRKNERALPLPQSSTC
Assay [13] concerns the target Tyrosine-protein kinase CSK (Homo sapiens) (UniProt P41240). Briefly: Inhibition of CSK (unknown origin) assessed as remaining activity at 1 uM by Kinome scan method relative to control.

Chain of Mitogen-activated protein kinase 10 (Homo sapiens) (P53779 whole entry): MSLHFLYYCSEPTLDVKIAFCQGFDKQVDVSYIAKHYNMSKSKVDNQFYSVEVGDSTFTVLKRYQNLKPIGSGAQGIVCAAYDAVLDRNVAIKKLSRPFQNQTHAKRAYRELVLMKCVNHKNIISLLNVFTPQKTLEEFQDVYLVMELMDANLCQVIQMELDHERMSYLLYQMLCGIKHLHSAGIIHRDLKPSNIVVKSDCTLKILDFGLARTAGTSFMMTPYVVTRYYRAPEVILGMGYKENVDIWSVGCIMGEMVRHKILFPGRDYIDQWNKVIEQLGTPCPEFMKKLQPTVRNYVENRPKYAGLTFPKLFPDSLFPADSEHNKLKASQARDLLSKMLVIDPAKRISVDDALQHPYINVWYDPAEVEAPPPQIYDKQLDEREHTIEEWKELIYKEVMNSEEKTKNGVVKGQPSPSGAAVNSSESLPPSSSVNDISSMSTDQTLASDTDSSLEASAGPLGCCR

On to `O=C1c2ccc(Nc3ccc(F)cc3F)cc2CCc2ccc(OC[C@H](O)CO)cc21` [Skepinone-L], for which the Activity in [1] came out at 88%; in assay [2] it was 121%; in [3], 100%; in [4], 97%; in [5], 108%; in assay [6] it was 100%. For the same molecule, the Activity in assay [7] came to 97%; in assay [8], 85%; in [9], 61%; in assay [10], 92%; in [11] it was 96%; in [12], 91%. For the same molecule, the Activity in assay [13] was 100%.
